Patent publication EP1118615A1, “NOVEL SALTS OF PYRIDOPYRAZINE COMPOUND AND CRYSTALS THEREOF” (FUJISAWA PHARMACEUTICAL CO., LTD., priority 1998, dated 2000)
Counter-ions that a name gives are not always drawn. Like-named read-outs stand apart in the source and are kept apart here.

Columns and labels:
Stability in solid state = format: physicochemical; set-up: Water content: unit not given here
Text: The crystallinity of hydrochloride was decreased when it was mixed with ethanol.
(§1) In the study on polymorphism of compound (I), six kinds of polymorphs (A01, A09, A16, A20, A30 and A43 crystals) were found. For each of those polymorphs, hygroscopicity, stability in solid state, solubility and changes in crystallinity on compounding with various solvents were studied. However, the A30 crystal was not studied since it contains ethanol.
(2) Stability in solid state

Hygroscopicity = format: physicochemical
Text: as §1

[1] = methanesulfonate
[2] = Changes in crystallinity upon compounding with ethanol; format: physicochemical
Text: (2) Changes in crystallinity upon compounding
For compound (I) and hydrochloride (B), changes in crystallinity upon compounding with ethanol were studied.

physchem = conditions: thermodynamic from solid
[3] = 70°C, 75% RH, 9 days, methanesulfonate
[4] = Table 4, room temperature, 30-min shaking
[5] = distilled water for injection, water
[6] = physiological saline solution, saline or isotonic
[7] = Table 1, listed as Compound (I) (A01 crystal)

For CS(=O)(=O)O.O=C(Nc1cccc(-n2c(=O)c(Cc3cccnc3)nc3cccnc32)c1)c1cc(Cl)cc(Cl)c1 [A20 crystal, 4-(3-(3,5-dichlorobenzoylamino)phenyl)-2-(3-pyridyl)methyl-3-oxo-3,4-dihydropyr ido[2,3-b]pyrazine methanesulfonate], the Crystal form (Stability in solid state; 70°C, 75% RH, 9 days) was “Unchanged”, the “% Residue” value (Stability in solid state; [3]) was 101.0% and the Appearance (Stability in solid state; [3]) was “Pale yellowish white crystalline powder”. For the same molecule, the Water content (Stability in solid state; [3]) was 1.22, the Crystal form (Stability in solid state; 70°C, 9 days) was “Unchanged” and the “% Residue” value (Stability in solid state; 70°C, 9 days, methanesulfonate) was 99.6%. For the same molecule, the Appearance (Stability in solid state; 70°C, 9 days, methanesulfonate) was “Pale yellowish white crystalline powder”, the Water content (Stability in solid state; 70°C, 9 days, methanesulfonate) was 0.30 and the “% Residue” value (Stability in solid state; Initial) was 100.0%. The Appearance (Stability in solid state; Initial, methanesulfonate) was “Pale yellowish white white crystalline powder”, the Water content (Stability in solid state; Initial, methanesulfonate) was 0.41 and the “change in crystal form” value (Stability in solid state; heat and humidity, summary of Table 3) was “no change”. For the same molecule, the “chemical stability against heat and humidity” value (Stability in solid state; summary of Table 3) was “chemically stable”, the Hygroscopicity (Hygroscopicity; listed as A20, methanesulfonate) was “less hygroscopic” and the “Solubility, Distilled injection for injection” value [1, 4] was 8.76 µg/mL. For the same molecule, the “Solubility, Physiological saline solution” value [1, 4] was 0.0645 mg/ml.
For O=C(Nc1cccc(-n2c(=O)c(Cc3cccnc3)nc3cccnc32)c1)c1cc(Cl)cc(Cl)c1 [hydrochloride (B), reference compound], the residual amount (Stability in solid state; ethanol-compounded solid, 70°C for 9 days) was 91%, the “Influence of compounding with ethanol on crystallinity” value (“Influence of compounding with ethanol” for short) ([2]; listed as Hydrochloride (B)) was “Crystallinity decreased” and the “Influence of compounding with ethanol” value ([2]; listed as hydrochloride) was “decreased”.
O=C(Nc1cccc(-n2c(=O)c(Cc3cccnc3)nc3cccnc32)c1)c1cc(Cl)cc(Cl)c1 [free base (A), 4-[3-(3,5-dichlorobenzoylamino)phenyl]-2-(3-pyridylmethyl)-3-oxo-3,4-dihydropyr ido[2,3-b]pyrazine, reference compound] gave a solubility (physchem; [5]) of at most 1 µg/mL and a solubility (physchem; [6]) of at most 1 µg/mL.
In the case of O=C(Nc1cccc(-n2c(=O)c(Cc3cccnc3)nc3cccnc32)c1)c1cc(Cl)cc(Cl)c1.O=S(=O)(O)O [sulfate, 4-(3-(3,5-dichlorobenzoylamino)phenyl)-2-(3-pyridyl)methyl-3-oxo-3,4-dihydropyrido[2,3-b]pyrazine sulfate, reference compound], the solubility (physchem; [5]) is reported as 29.5 µg/mL and the solubility (physchem; [6]) is reported as 38.9 µg/mL.
In the case of CS(=O)(=O)O.O=C(Nc1cccc(-n2c(=O)c(Cc3cccnc3)nc3cccnc32)c1)c1cc(Cl)cc(Cl)c1 [Example A09, 4-(3-(3,5-dichlorobenzoylamino)phenyl)-2-(3-pyridyl)methyl-3-oxo-3,4-dihydropyrido[2,3-b]pyrazine methanesulfonate], the Hygroscopicity (Hygroscopicity; methanesulfonate) is reported as “highly hygroscopic”.
With CS(=O)(=O)O.O=C(Nc1cccc(-n2c(=O)c(Cc3cccnc3)nc3cccnc32)c1)c1cc(Cl)cc(Cl)c1 [A01 crystal, 4-(3-(3,5-dichlorobenzoylamino)phenyl)-2-(3-pyridyl)methyl-3-oxo-3,4-dihydropyr ido[2,3-b]pyrazine methanesulfonate] the Crystal form (Stability in solid state; 70°C, 75% RH, 9 days) was “Unchanged”, the “% Residue” value (Stability in solid state; [3]) was 99.9% and the Appearance (Stability in solid state; [3]) was “Yellowish white crystalline powder powder”. The Water content (Stability in solid state; [3]) was 4.76, the Crystal form (Stability in solid state; 70°C, 9 days) was “Unchanged” and the Appearance (Stability in solid state; 70°C, 9 days, methanesulfonate) was “Yellowish white crystalline powder”. For the same molecule, the Water content (Stability in solid state; 70°C, 9 days, methanesulfonate) was 4.23, the “% Residue” value (Stability in solid state; Initial) was 100.0% and the Appearance (Stability in solid state; Initial, methanesulfonate) was “Yellowish white crystalline powder”. For the same molecule, the Water content (Stability in solid state; Initial, methanesulfonate) was 4.42, the solubility (physchem; [5]) was 637 µg/mL and the solubility (physchem; [6]) was 43.9 µg/mL. For the same molecule, the solubility at 30 min (physchem; [6]) was 43.9 µg/mL, the Hygroscopicity (Hygroscopicity; listed as A01, methanesulfonate) was “less hygroscopic” and the “Influence of compounding with ethanol” value ([2]; listed as Compound (I) (A01 crystal), methanesulfonate) was “No change (changed into in A16 crystal)”. For the same molecule, the “Solubility, Distilled water for injection” value [1, 7] was “improved”, the “Solubility, Physiological saline solution” value [1, 7] was “improved” and the “Solubility, Distilled injection for injection” value [1, 4] was 637 µg/mL.
In the case of CS(=O)(=O)O.O=C(Nc1cccc(-n2c(=O)c(Cc3cccnc3)nc3cccnc32)c1)c1cc(Cl)cc(Cl)c1 [compound (I), 4-[3-(3,5-dichlorobenzoylamino)phenyl]-2-(3-pyridylmethyl)-3-oxo-3,4-dihydropyr ido[2,3-b]pyrazine methanesulfonate], the “Influence of compounding with ethanol” value ([2]; methanesulfonate) is reported as “no change in crystallinity”.
